The results in this text go back to US20160264593A1 (priority 2013, published 2016).

This data set in a line: Pharmacokinetic study of 157 (and metabolite endothal) in SD rats, iv and po; plasma, liver, brain. It counts as in vivo. To be noted: for endothal detectable in brain samples: after single iv 157 at 1.5 mg/kg; for Cmax: female, rat, in vivo, iv. As to the method:
The blood, liver and brain tissue samples were collected at predetermined times from rats. […] Compound were diluted shortly before use in 4% sodium bicarbonate for sterile injection (this is the standard pediatric solution of NaHCO3 with a pH of about 8.5).
Compound 153 was freshly prepared by diluting the drugs shortly before use in 4% sodium bicarbonate for sterile injection (this is the standard pediatric solution of NaHCO3 with a pH of about 8.5). The final concentrations of 153 solutions were 0.25 mg/mL. The 153 solutions were administered via iv or po route at dose volume of 5 ml/kg according to the latest body weight. Compound 157 was freshly prepared by diluting the drugs shortly before use in 4% sodium bicarbonate for sterile injection (this is the standard pediatric solution of NaHCO3 with a pH of about 8.5). The final concentrations of […] solutions were 0.3 mg/mL. The 157 solutions were administered via iv or po route at dose volume of 5 ml/kg according to the latest body weight.
Twelve (12) female SD rats per group were dosed by iv with 153 or 157. The rats were fasted overnight prior to dosing, with free access to water. Foods were withheld for 2 hours post-dose. Blood, liver and brain tissue samples in two animals each group were collected at each time point, within 10% of the scheduled time for each time point. Two extra animals were used for analytic method development.
Blood (>0.3 mL) were collected via aorta abdominalis in anaesthetic animals into tubes containing heparin at 15 min, 1, 2, 6, 10 and 24 hours after iv administration. Liver and brain tissues were collected immediately after animal death. The liver and brain tissues were excised and rinsed with cold saline to avoid blood residual. Upon collection, each sample was placed on ice and the blood samples were subsequently centrifuged (4° C., 11000 rpm, 5 min) to separate plasma. The obtained plasma, liver and brain tissue samples were stored at −70° C. until LC-MS/MS analysis.
Two (2) female SD rats per group were dosed by po with 153 or 157. The rats were fasted overnight prior to dosing, with free access to water. Foods were withheld for 2 hours post-dose. Blood samples (>0.3 mL) were collected via aorta abdominalis in anaesthetic animals into tubes containing heparin at 30 min, 1, 2, 6, 10 and 24 hours after po administration.
To each sample, 30 μL IS-D (for blank samples, 20 μL acetonitrile:water (1:1) was added) and 300 μl acetonitrile was added. The sample mixture was vortexed for approximately 3 min. After centrifugation at 10000 rpm for 5 min at 4° C., 100 μL of the upper layer was transferred to a new tube and added 200 μL 0.4% formic acid in water (pH6.0). The mixture was vortexed for approximately 3 min before injected onto the LC/MS/MS system for analysis.
On the day of the assay, the frozen liver and brain samples were thawed unassisted at room temperature. An about 200 mg weighed sample of each thawed tissue was placed into a plastic tube with water (0.6 mL) to facilitate homogenization. Tissue processing was conducted using a homogenizer for approximately 1 min, 100 μl homogenate was transferred into a fresh Eppendorf tube. To each tube, 50 μL IS-D was added and mixed. Then 500 μl acetonitrile was added and the sample mixture was vortexed for approximately 3 min. After centrifugation at 10000 rpm for 5 min at 4° C., 100 μL of the upper layer was transferred to a new tube and evaporate the supernatant to dryness at 35° C. Reconstitute the residue with 200 μL of 0.4% formic acid in water (pH 6.0), and vortex for 3 min, submit for LC-MS/MS analysis.
Frozen unknown plasma samples were completely thawed at room temperature and vortexed thoroughly. With a pipette, 50 μL of plasma was transferred into a 2.0 mL Eppendorf tube. 50 μL of 0.1N HCl and 800 μL ethyl acetate were added into each sample. The sample mixture was vortexed for approximately 3 min.

The Cmax is the maximum level reached in the sampled fluid or tissue.

Turning to `O=C(O)C1C2CCC(O2)C1C(=O)O` (stereo not shown) [Endothal, 7-oxabicyclo[2.2.1]heptane-2,3-dicarboxylic acid], the Endothal plasma concentration result (after iv 157, 10 hr, Rat 1) was “BLQ”; the Endothal plasma concentration entry (after iv 157, 10 hr, Rat 2) is “BLQ”; the Endothal plasma concentration result (after iv 157, 24 hr, Rat 1) is on record as “BLQ”; the Endothal plasma concentration result (after iv 157, 24 hr, Rat 2) is recorded as “BLQ”; the Endothal plasma concentration result (after po 157, 10 hr, Rat 1) was “BLQ”; the Endothal plasma concentration result (after po 157, 10 hr, Rat 2) is “BLQ”. For the same compound, the “endothal detectable in brain samples” value reads like this: (1.5 mg/kg) “undetectable”; (listed as endothal, 1.5 mg/kg) “not detectable”. Further, the Cmax (SD, 1.5 mg/kg) was determined as 3720 ng/g and the maximum concentration (Cmax) (Sprague-Dawley (SD)) amounted to 3720 ng/g.
